This passage reports IC50 results from BindingDB's records for doi:10.1021/jf103164r (Rutgers University, 2011).

In the experiment the target is T1, Dihydrofolate reductase (Homo sapiens, UniProt P00374).
T1 sequence (P00374 whole entry): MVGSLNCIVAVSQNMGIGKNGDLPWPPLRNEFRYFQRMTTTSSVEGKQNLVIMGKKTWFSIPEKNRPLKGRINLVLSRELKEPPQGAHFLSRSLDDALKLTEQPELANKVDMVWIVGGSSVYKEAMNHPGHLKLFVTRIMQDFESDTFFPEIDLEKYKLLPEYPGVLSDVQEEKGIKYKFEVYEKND
Kind of experiment: Inhibition of human DHFR.

On to `Nc1nnc(CCC(=O)c2cccs2)s1` [3-(5-Amino-[1,3,4]thiadiazol-2-yl)-1-(thiophen-2-yl)propan-1-one], for which half-maximal inhibition (IC50) was put at 300 µM.
For the compound `CS(=O)(=O)c1ccc2nc(N)sc2c1` [6-(methylsulfonyl)benzo[d]thiazol-2-amine], the IC50 – broadly, the concentration needed to halve the response being measured – amounted to 1040 µM.
Next, `Nc1nc2ccc(OC(F)(F)F)cc2s1` [SMR000058231]: 312 µM.
